From PubChem BioAssay AID720623 (The Scripps Research Institute Molecular Screening Center, 2013)
Calls of active or inactive are those of the source. No rule for the calls is given here.

Test system: methionyl-tRNA synthetase (Trypanosoma brucei brucei)
Assay: T. brucei MetRS aminoacylation inhibitors, late-stage follow-up, counter-screen for T. brucei MetRS inhibitor project, biochemical, radioactivity, assay provider (AID 720623)
Details: Recombinant T. brucei MetRS enzyme, [3H]methionine tRNA aminoacylation, filter scintillation, 120 min, stronger effect = higher value

Row | inhibition (at 10 µM) | inhibition (inhibition, at 1 µM) [%] | Compound
1 | 73% | 7.36 | O=C(NNC(=O)c1ccc(-n2cncn2)c([N+](=O)[O-])c1)c1ccc(Cl)cc1
2 | 92.7% | 44.6 | CC(=O)c1c[nH]c(C(=O)NCc2cccc(C(F)(F)F)c2)c1
3 | 101% | 95.1 | CN(Cc1cc(Cl)cc(Cl)c1)[C@H]1C[C@H]2c3[nH]c4ccccc4c3CCN2C(=O)[C@H]1CO
4 | 80.4% | 1.98 | C[C@H](O)[C@@H]1C(=O)N2CCc3c([nH]c4ccccc34)[C@@H]2C[C@@H]1N(C)Cc1ccc2c(c1)OCO2
5 | 74.3% | 6.25 | O=C(CCC(=O)Nc1cccc([N+](=O)[O-])c1)NN=Cc1cccs1
6 | 91.9% | 44.9 | O=C(Cn1cnc2ccccc21)Nc1cccc([N+](=O)[O-])c1
7 | 95.1% | 57 | COc1ccccc1NS(=O)(=O)c1cccc(NC(=O)Nc2ccccc2)c1
8 | 84.7% | 32.2 | O=C(CC=NOCc1ccc([N+](=O)[O-])cc1)Nc1ccc(Br)cc1
9 | 93.7% | 50.4 | O=C(NCc1nc2ccccc2[nH]1)C1=C[C@@H](c2ccc3c(c2)OCO3)C[C@@H](OCCCCO)O1
10 | 98.7% | 88.3 | Oc1c(Cl)cc(Cl)cc1CNc1nc2ccccc2[nH]1
11 | 94.3% | 44.6 | O=C(NCc1nc2ccccc2[nH]1)C1=C[C@@H](c2ccccc2)C[C@@H](OCc2ccc(CO)cc2)O1
12 | 100% | 87.5 | O=C(Cn1cc(C(=O)C(=O)N2CCOCC2)c2ccccc21)Nc1cccc(C(F)(F)F)c1
13 | 56.9% | -3.3 | O=C(NCc1nc2ccccc2[nH]1)C1=C[C@H](C2CC2)C[C@H](OCc2ccc(CO)cc2)O1
14 | 90.5% | 36.5 | CC(CC(=O)Nc1cccc(Br)c1)=NNC(=O)c1ccc(O)cc1O
15 | 71.7% | 14.4 | O=C(N/C(=C\c1cccnc1)c1nc2ccccc2[nH]1)c1cccc(Br)c1
16 | 97.3% | 84.2 | O=C1CC(N(CCc2ccccc2)C(=S)Nc2ccccc2)C(=O)N1c1ccc(Br)cc1 (stereo not drawn)
17 | 52.6% | 19.7 | O=C1CC(SCc2nc3ccccc3[nH]2)C(=O)N1c1cccc(Cl)c1 (stereo not drawn)
18 | 61.9% | 28.9 | COc1ccc(OCC(O)CNC(=O)Nc2ccc(Cl)cc2)cc1 (stereo not drawn)
19 | 92.5% | 38 | CN(CC(=O)Nc1ccc(Cl)cc1)C(=O)c1ccc(-n2cncn2)c([N+](=O)[O-])c1
20 | 89.6% | 47.5 | COc1ccc(CNC(=O)CSc2nnc3c(n2)[nH]c2ccc(F)cc23)cc1
21 | 44.8% (inactive) | -2.58 | Clc1ccc(OCCSCc2nc3ccccc3[nH]2)cc1
22 | 81.1% | 28.2 | O=C(CC(=O)Nc1cccc(Cl)c1)NN=Cc1ccccc1
23 | 67% | 2.04 | COc1ccccc1-n1c(SCC(=O)Nc2ccc(Cl)cc2)nc(O)c(Cc2ccccc2)c1=O
24 | 61.8% | 7.32 | O=C(NCc1nc2ccccc2[nH]1)C1=C[C@H](c2ccccc2)C[C@H](OCc2ccc(CO)cc2)O1
25 | 72.7% | 28.4 | CCOC(=O)N1CCC(Nc2c(Nc3ccc(F)cc3)c(=O)c2=O)CC1
26 | 84.8% | 30.8 | CC(C)(C)[C@@H]1C=C(C(=O)NCc2nc3ccccc3[nH]2)O[C@H](OCc2ccc(CO)cc2)C1
27 | 86.5% | 28.6 | O=C(CC=NOCc1ccc([N+](=O)[O-])cc1)Nc1ccc(Cl)cc1

Row | inhibition (at 10 µM) | inhibition (inhibition, at 1 µM) [%] | Compound
28 | 94.6% | 50.3 | O=C(NCc1nc2ccccc2[nH]1)C1=C[C@H](c2ccc(Br)cc2)C[C@H](OCc2ccc(CO)cc2)O1
29 | 90.3% | 44.9 | O=C(Nc1ccc(F)c(Cl)c1)C1CC(=O)n2c(nc3ccccc32)N1 (stereo not drawn)
30 | 84.9% | 23.7 | Brc1cnc2nc(SCc3nc4ccccc4[nH]3)[nH]c2c1
31 | 94.4% | 55.7 | O=C(C[C@H]1C(=O)N(Cc2ccccc2)C[C@@H]1c1ccc(Br)cc1)Nc1ccc(Br)cc1
32 | 93.1% | 50 | CC(C)OCCCN1CC(=O)N2C(c3cccc([N+](=O)[O-])c3)c3[nH]c4ccccc4c3C[C@H]2C1=O (stereo partly drawn)
33 | 97% | 68.1 | CC(=O)c1ccc(N2CCN(C(=O)CCCn3c(=O)[nH]c4ccc(Br)cc4c3=O)CC2)cc1
34 | 85.5% | 59.7 | O=C(NNC(=O)c1cc(-c2ccc(Cl)c(Cl)c2)nc2ccccc12)Nc1ccccc1
35 | 28% (inactive) | -1.95 | O=C(CN1CCSC1=NCc1ccccc1)c1ccc(Cl)c(Cl)c1
36 | 79.4% | 5.68 | O=C(NCc1nc2ccccc2[nH]1)C1=C[C@H](c2ccc3c(c2)OCO3)C[C@H](OCCCCO)O1
37 | 96.7% | 57.7 | CN1CC(=O)N2C(c3cccc([N+](=O)[O-])c3)c3[nH]c4ccccc4c3C[C@H]2C1=O (stereo partly drawn)
38 | 94.3% | 51.6 | O=C(NCc1nc2ccccc2[nH]1)C1=C[C@H](c2ccc(Br)cc2)C[C@H](OCCCCO)O1
39 | 93.2% | 64.7 | CCCCCCCCCC1NC(C(=O)O)Cc2c1[nH]c1ccccc21 (stereo not drawn)
40 | 93.6% | 52.8 | O=C(NCc1nc2ccccc2[nH]1)C1=C[C@@H](C2CC2)C[C@@H](OCc2ccc(CO)cc2)O1
41 | 99.6% | 89.8 | O=C(NCCc1nc2ccccc2[nH]1)c1ccc(Cl)c([N+](=O)[O-])c1
42 | 83.8% | 21.6 | CC(C)(C)[C@H]1C=C(C(=O)NCc2nc3ccccc3[nH]2)O[C@@H](OCc2ccc(CO)cc2)C1
43 | 94.2% | 97.7 | COc1cccc(NC(=O)CSc2nnc3c(n2)[nH]c2ccc(C)cc23)c1
44 | 89.2% | 20.6 | O=C(NCc1nc2ccccc2[nH]1)C1=C[C@@H](c2csc3ccccc23)C[C@@H](OCCCCO)O1
45 | 97% | 75.3 | Clc1ccc(-c2nnc(SCc3nc4ccccc4[nH]3)o2)c(Cl)c1
46 | 86.6% | 19.4 | Cc1[nH]c2ccc(Br)cc2c(=O)c1CN1CCCCCC1
47 | 99.9% | 84.2 | O=C(NCc1nc2ccccc2[nH]1)C1=C[C@@H](c2ccc(Br)cc2)C[C@@H](OCCCCO)O1
48 | 81.6% | 0.88 | CCO[C@H]1OC(C(=O)NCc2nc3ccccc3[nH]2)=C[C@@H](c2ccc(Br)cc2)[C@@H]1CCCO
49 | 97.8% | 71.1 | O=C(NCc1nc2ccccc2[nH]1)C1=C[C@H](c2csc3ccccc23)C[C@H](OCCCCO)O1
50 | 65.6% | 63.4 | COc1ccc2[nH]c3nc(SCC(=O)Nc4ccc5c(c4)OCO5)nnc3c2c1
51 | 67.3% | -1.05 | Cc1ccc(NC(=O)CN(C)C(=O)CCSc2ccc(F)cc2)cc1
52 | 97.6% | 62.1 | O=C(NCc1nc2ccccc2[nH]1)C1=C[C@@H](c2ccc(Br)cc2)C[C@@H](OCc2ccc(CO)cc2)O1
53 | 97.5% | 63.2 | O=C1[C@@H]2Cc3c([nH]c4ccccc34)C(c3cccc([N+](=O)[O-])c3)N2C(=O)CN1CCCO (stereo partly drawn)
54 | 64% | 6.72 | CCO[C@@H]1OC(C(=O)NCc2nc3ccccc3[nH]2)=C[C@H](c2ccc(Br)cc2)[C@H]1CCCO
